Results taken from PubChem BioAssay (NCI).
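In this assay, cells in 96-well plates receive the compound at five concentrations for 48 hours. Endpoints are linearly interpolated between the surrounding concentrations. At the GI50, growth is halved. TGI denotes the concentration required for complete inhibition of growth.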

Key:
Assay in all cases: DTP human tumour cell line panel, 48 h
RXF 393 renal = system: RXF 393 renal
HL-60(TB) leukemia = system: HL-60(TB) leukemia
A498 renal = system: A498 renal
786-0 renal = system: 786-0 renal
NCI-H23 lung = system: NCI-H23 lung
T-47D breast = system: T-47D breast
UO-31 renal = system: UO-31 renal
NCI-H522 lung = system: NCI-H522 lung
M14 melanoma = system: M14 melanoma
BT-549 breast = system: BT-549 breast
MOLT-4 leukemia = system: MOLT-4 leukemia
SN12C renal = system: SN12C renal
SK-OV-3 ovarian = system: SK-OV-3 ovarian
HS 578T breast = system: HS 578T breast
SF-539 CNS = system: SF-539 CNS
SF-295 CNS = system: SF-295 CNS
HOP-62 NSCLC = system: HOP-62 NSCLC
TK-10 renal = system: TK-10 renal
OVCAR-8 ovarian = system: OVCAR-8 ovarian
IGROV1 ovarian = system: IGROV1 ovarian
U251 CNS = system: U251 CNS
OVCAR-4 ovarian = system: OVCAR-4 ovarian
NCI-H226 lung = system: NCI-H226 lung
A549 NSCLC = system: A549 NSCLC
LOX IMVI melanoma = system: LOX IMVI melanoma
ACHN renal = system: ACHN renal
MDA-MB-435 = system: MDA-MB-435
DU-145 prostate = system: DU-145 prostate
EKVX NSCLC = system: EKVX NSCLC
SK-MEL-28 melanoma = system: SK-MEL-28 melanoma
HOP-92 NSCLC = system: HOP-92 NSCLC
COLO 205 colon = system: COLO 205 colon
CAKI-1 renal = system: CAKI-1 renal
CCRF-CEM leukemia = system: CCRF-CEM leukemia
SF-268 CNS = system: SF-268 CNS
SK-MEL-5 melanoma = system: SK-MEL-5 melanoma
MDA-MB-231 breast = system: MDA-MB-231 breast
SNB-75 CNS = system: SNB-75 CNS
NCI/ADR-RES ovarian = system: NCI/ADR-RES ovarian
HT29 colon = system: HT29 colon
OVCAR-5 ovarian = system: OVCAR-5 ovarian
MALME-3M melanoma = system: MALME-3M melanoma
KM12 colon = system: KM12 colon
HCT-116 colon = system: HCT-116 colon
HCT-15 colon = system: HCT-15 colon
SR leukemia = system: SR leukemia
PC-3 prostate = system: PC-3 prostate
SW-620 colon = system: SW-620 colon
SK-MEL-2 melanoma = system: SK-MEL-2 melanoma
RPMI-8226 leukemia = system: RPMI-8226 leukemia
OVCAR-3 ovarian = system: OVCAR-3 ovarian
UACC-257 melanoma = system: UACC-257 melanoma
SNB-19 CNS = system: SNB-19 CNS
UACC-62 melanoma = system: UACC-62 melanoma

`O=S(=O)(c1ccc(NC(=S)N/N=C/c2ccccc2O)cc1)N1CCCCC1` was tested, and the TGI (RXF 393 renal) was greater than 100 µM, the GI50 (HL-60(TB) leukemia) was 0.351 µM and the TGI (HL-60(TB) leukemia) was 7.12 µM. For the same compound, the TGI (A498 renal) was 27.9 µM, the TGI (786-0 renal) was 4.34 µM and the TGI (NCI-H23 lung) was 6.94 µM. It also gave a TGI (T-47D breast) greater than 52.8 µM, a TGI (UO-31 renal) greater than 41.9 µM and a TGI (NCI-H522 lung) greater than 57.5 µM. The TGI (M14 melanoma) was 2.78 µM, the TGI (BT-549 breast) was greater than 100 µM and the TGI (MOLT-4 leukemia) was 2.13 µM. It also gave a TGI (SN12C renal) of 3.92 µM, a TGI (SK-OV-3 ovarian) of 37.9 µM and a TGI (HS 578T breast) of 40.5 µM. The TGI (SF-539 CNS) was greater than 40.9 µM, the TGI (SF-295 CNS) was 3.45 µM and the TGI (HOP-62 NSCLC) was 4.45 µM. The TGI (TK-10 renal) was 4.23 µM, the TGI (OVCAR-8 ovarian) was 14.9 µM and the TGI (IGROV1 ovarian) was greater than 50.4 µM. The TGI (U251 CNS) was 16.8 µM, the TGI (OVCAR-4 ovarian) was greater than 71.4 µM and the TGI (NCI-H226 lung) was 0.803 µM. It also gave a TGI (A549 NSCLC) greater than 31.7 µM, a TGI (LOX IMVI melanoma) of 0.109 µM and a TGI (ACHN renal) of 10.2 µM. For the same compound, the TGI (MDA-MB-435) was 11.2 µM, the TGI (DU-145 prostate) was greater than 47.4 µM and the TGI (EKVX NSCLC) was 76.2 µM. It also gave a TGI (SK-MEL-28 melanoma) greater than 52 µM, a TGI (HOP-92 NSCLC) of 66.1 µM and a TGI (COLO 205 colon) of 36.5 µM. For the same compound, the TGI (CAKI-1 renal) was 0.671 µM, the TGI (CCRF-CEM leukemia) was 1.66 µM and the TGI (SF-268 CNS) was 6.9 µM. For the same compound, the TGI (SK-MEL-5 melanoma) was 0.176 µM, the TGI (MDA-MB-231 breast) was greater than 44.5 µM and the TGI (SNB-75 CNS) was greater than 65.2 µM. For the same compound, the TGI (NCI/ADR-RES ovarian) was 0.586 µM, the TGI (HT29 colon) was greater than 68.8 µM and the TGI (OVCAR-5 ovarian) was 18.3 µM. For the same compound, the TGI (MALME-3M melanoma) was 1.43 µM, the TGI (KM12 colon) was 12.9 µM and the TGI (HCT-116 colon) was 7 µM. For the same compound, the TGI (HCT-15 colon) was 18.4 µM, the TGI (SR leukemia) was 3.58 µM and the TGI (PC-3 prostate) was 21.1 µM. It also gave a TGI (SW-620 colon) of 21 µM, a TGI (SK-MEL-2 melanoma) greater than 100 µM and a TGI (RPMI-8226 leukemia) of 8.17 µM. For the same compound, the TGI (OVCAR-3 ovarian) was 6.34 µM, the TGI (UACC-257 melanoma) was 14.5 µM and the TGI (SNB-19 CNS) was greater than 100 µM. The TGI (UACC-62 melanoma) was 0.262 µM.
